Experimental data from paper doi:10.1101/2025.01.28.635346v1 (bioRxiv, 2025).
Bridge positions count the residues as written; N and C are the ends. Side chains are listed from the residue outwards. Peptide text beside a SMILES is read from it. * marks the point of attachment. Butanoyl(4-(4-I-phenyl)) = O=C(CCCc1ccc(I)cc1)*; PEG2 = NCCOCCOCCC(=O)O

Assay: Pharmacokinetics in female Balb/c mice
Type: in vivo, mouse
[1] = Table S3E, IP 10 mg/kg, mouse, animal 1F001
[2] = Table S3E, IP 10 mg/kg, mouse, animal 1F002
[3] = Table S3E, IP 10 mg/kg, mouse, animal 1F003
[4] = Table S3E, IP 10 mg/kg, mouse, animal 1F005
[5] = female, Balb/c, mouse, plasma, ip, 10 mg/kg

CC[C@H](C)[C@H](NC(=O)[C@H](CC(C)C)NC(=O)[C@H](CC(=O)O)NC(=O)CNC(=O)[C@H](CCCNC(=N)N)NC(=O)[C@@H](NC(=O)[C@H](Cc1ccccc1)NC(=O)[C@H](Cc1ccc(O)cc1)NC(=O)[C@@H]1CCC(=O)NCC(=O)NCC(=O)N[C@@H](CCCCNC(=O)CCOCCOCCNC(=O)CCCc2ccc(I)cc2)C(=O)NCC(=O)N[C@@H](Cc2c[nH]cn2)C(=O)N[C@@H](C(C)C)C(=O)N2CCC[C@H]2C(=O)N1)C(C)C)C(=O)N[C@@H](CO)C(=O)N[C@@H](Cc1ccccc1)C(=O)N[C@@H](Cc1ccc(O)cc1)C(=O)N[C@@H](CCCCNC(=O)CCOCCOCCNC(=O)CCCc1ccc(I)cc1)C(=O)O [lassotide 52] (GGK([PEG2-Butanoyl(4-(4-I-phenyl))])GHVPEYFVRGDLISFYK([PEG2-Butanoyl(4-(4-I-phenyl))])-OH; lactam N-8)
further increase in half-life (52 vs 47, 10 mg/kg IP, mice): 4.4 fold
Plasma Concentration (IP 10 mg/kg, 1.0 h, animal 1F001): 31600 ng/mL
Plasma Concentration (IP 10 mg/kg, 1.0 h, animal 1F002): 21000 ng/mL
Plasma Concentration (IP 10 mg/kg, 1.0 h, animal 1F003): 36300 ng/mL
Plasma Concentration (IP 10 mg/kg, 1.0 h, animal 1F005): 34200 ng/mL
Plasma Concentration (IP 10 mg/kg, 2.0 h, animal 1F001): 50800 ng/mL
Plasma Concentration (IP 10 mg/kg, 2.0 h, animal 1F002): 35000 ng/mL
Plasma Concentration (IP 10 mg/kg, 2.0 h, animal 1F003): 53100 ng/mL
Plasma Concentration (IP 10 mg/kg, 2.0 h, animal 1F005): 40000 ng/mL
Plasma Concentration (IP 10 mg/kg, 4.0 h, animal 1F001): 54500 ng/mL
Plasma Concentration (IP 10 mg/kg, 4.0 h, animal 1F002): 51100 ng/mL
Plasma Concentration (IP 10 mg/kg, 4.0 h, animal 1F003): 59300 ng/mL
Plasma Concentration (IP 10 mg/kg, 4.0 h, animal 1F005): 43400 ng/mL
Plasma Concentration (IP 10 mg/kg, 8.0 h, animal 1F001): 45300 ng/mL
Plasma Concentration (IP 10 mg/kg, 8.0 h, animal 1F002): 43800 ng/mL
Plasma Concentration (IP 10 mg/kg, 8.0 h, animal 1F003): 51000 ng/mL
Plasma Concentration (IP 10 mg/kg, 8.0 h, animal 1F005): 35200 ng/mL
Plasma Concentration (IP 10 mg/kg, 12 h, animal 1F001): 37900 ng/mL
Plasma Concentration (IP 10 mg/kg, 12 h, animal 1F002): 43800 ng/mL
Plasma Concentration (IP 10 mg/kg, 12 h, animal 1F003): 43800 ng/mL
Plasma Concentration (IP 10 mg/kg, 12 h, animal 1F005): 30500 ng/mL
Plasma Concentration (IP 10 mg/kg, 24 h, animal 1F001): 22500 ng/mL
Plasma Concentration (IP 10 mg/kg, 24 h, animal 1F002): 24300 ng/mL
Plasma Concentration (IP 10 mg/kg, 24 h, animal 1F003): 34800 ng/mL
Plasma Concentration (IP 10 mg/kg, 24 h, animal 1F005): 19900 ng/mL
Plasma Concentration (IP 10 mg/kg, 36 h, animal 1F001): 16100 ng/mL
Plasma Concentration (IP 10 mg/kg, 36 h, animal 1F002): 17400 ng/mL
Plasma Concentration (IP 10 mg/kg, 36 h, animal 1F003): 22000 ng/mL
Plasma Concentration (IP 10 mg/kg, 36 h, animal 1F005): 13400 ng/mL
Plasma Concentration (IP 10 mg/kg, 48 h, animal 1F001): 11200 ng/mL
Plasma Concentration (IP 10 mg/kg, 48 h, animal 1F002): 12400 ng/mL
Plasma Concentration (IP 10 mg/kg, 48 h, animal 1F003): 13200 ng/mL
Plasma Concentration (IP 10 mg/kg, 48 h, animal 1F005): 7330 ng/mL
AUClast [1]: 1290 µg·h/mL
CL/F [1]: 0.104 mL/min/kg
Cmax [1]: 54500 ng/mL
Tmax [1]: 4.0 h
Vz/F [1]: 0.179 L/kg
t1/2 [1]: 20 h
AUClast [2]: 1330 µg·h/mL
CL/F [2]: 0.0981 mL/min/kg
Cmax [2]: 51100 ng/mL
Tmax [2]: 4.0 h
Vz/F [2]: 0.176 L/kg
t1/2 [2]: 21 h
AUClast [3]: 1610 µg·h/mL
CL/F [3]: 0.0829 mL/min/kg
Cmax [3]: 59300 ng/mL
Tmax [3]: 4.0 h
Vz/F [3]: 0.151 L/kg
t1/2 [3]: 21 h
AUClast [4]: 1050 µg·h/mL
CL/F [4]: 0.134 mL/min/kg
Cmax [4]: 43400 ng/mL
Tmax [4]: 4.0 h
Vz/F [4]: 0.21 L/kg
t1/2 [4]: 18 h
Tmax (Table S3E: IP 10 mg/kg, female Balb/c mice, Mean N=4): 4.00 h
AUC(0-t) [5]: 1320 µg·h/mL
CL/F [5]: 0.105 mL/min/kg
Cmax [5]: 52100 ng/mL
Tmax [5]: 4 h
Vd/F [5]: 0.179 L/kg
half-life [5]: 20 h
level at 1 h [5]: 30800 ng/mL
level at 2 h [5]: 44700 ng/mL
level at 4 h [5]: 52100 ng/mL
level at 8 h [5]: 43800 ng/mL
level at 12 h [5]: 39000 ng/mL
level at 24 h [5]: 25400 ng/mL
level at 36 h [5]: 17200 ng/mL
level at 48 h [5]: 11000 ng/mL
